Measured values taken from ChEMBL document CHEMBL1154805, “Alternaramide, a cyclic depsipeptide from the marine-derived fungus Alternaria sp. SF-5016” (2009).
The source made the active and inactive calls. The calls are words filed in the database; no cut-off is given here.

Legend:
[1] = tested on: Bacillus subtilis; assay: Antibacterial activity against Bacillus subtilis KCTC 1021 at 5 ug/disk after 48 hrs by disk diffusion method; assay type: functional, organism-based
[2] = tested on: Staphylococcus aureus; assay: Antibacterial activity against Staphylococcus aureus KCTC 1928 at 50 ug/disk after 48 hrs by disk diffusion method; assay type: functional, organism-based
[3] = tested on: Cryptococcus neoformans; assay: Antifungal activity against Filobasidiella neoformans KCTC 7003 at 400 ug/disk after 48 hrs by disk diffusion method; assay type: functional, organism-based
[4] = tested on: Staphylococcus aureus; assay: Antibacterial activity against Staphylococcus aureus KCTC 1928 at 400 ug/disk after 48 hrs by disk diffusion method; assay type: functional; settings: KCTC 1928, 48 h, read-out: IZ
[5] = tested on: Bacillus subtilis; assay: Antibacterial activity against Bacillus subtilis KCTC 1021 at 400 ug/disk after 48 hrs by disk diffusion method; assay type: functional; settings: KCTC 1021, 48 h, read-out: IZ
[6] = biological target: T1, Tyrosine-protein phosphatase non-receptor type 1 (Homo sapiens) (UniProt P18031); assay: Inhibition of human recombinant PTP1B assessed as p-nitrophenol release at 150 ug/ml after 30 mins by spectrophotometry
T1 sequence (whole entry): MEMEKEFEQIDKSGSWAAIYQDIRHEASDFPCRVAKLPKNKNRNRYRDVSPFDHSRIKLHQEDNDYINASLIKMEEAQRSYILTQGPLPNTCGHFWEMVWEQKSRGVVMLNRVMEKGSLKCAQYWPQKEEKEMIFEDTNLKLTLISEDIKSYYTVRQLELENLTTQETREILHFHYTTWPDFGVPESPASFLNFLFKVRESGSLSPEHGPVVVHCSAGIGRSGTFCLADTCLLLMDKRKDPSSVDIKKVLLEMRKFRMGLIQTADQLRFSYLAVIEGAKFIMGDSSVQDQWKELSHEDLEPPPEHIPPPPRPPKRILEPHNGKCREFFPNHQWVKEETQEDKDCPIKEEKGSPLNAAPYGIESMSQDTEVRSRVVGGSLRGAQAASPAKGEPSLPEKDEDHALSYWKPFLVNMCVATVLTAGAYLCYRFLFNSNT

[7] = tested on: Candida albicans; assay: Antifungal activity against Candida albicans KCTC 7965 at 400 ug/disk after 48 hrs by disk diffusion method; assay type: functional, organism-based
[8] = tested on: Proteus vulgaris; assay: Antibacterial activity against Proteus vulgaris KACC 12674 at 400 ug/disk after 48 hrs by disk diffusion method; assay type: functional, organism-based

Compound | inhibition zone (IZ) [1] [mm] | inhibition zone (IZ) [2] [mm] | Activity [3] | zone of inhibition at 400 µg/disc [4] [mm] | zone of inhibition at 400 µg/disc [5] [mm] | inhibition [6] [%] | Activity [7] | Activity [8]
GENTAMICIN | 16 | 13 | – | – | – | – | – | –
CC(C)[C@@H]1OC(=O)[C@@H]2CCCN2C(=O)[C@@H](Cc2ccccc2)NC(=O)[C@@H]2CCCN2C(=O)[C@@H](Cc2ccccc2)NC1=O [ALTERNARAMIDE] | – | – | inactive | 13 | 8 | 49 | inactive | inactive
